From ChEMBL document CHEMBL1201862, “PubChem BioAssay data set” (2004)
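Interpolation was linear, between the two tested concentrations surrounding the appropriate level; five concentrations were tested over 48 hours in 96-well plates. At the GI50, growth is halved.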 Active and inactive are the calls of the source. No stated cut-off is given here; in the data, active = GI50 up to about 1.1 µM and inactive = higher.

How the values were obtained:
Experiment in all cases: inhibition of tumour cell growth, NCI panel, 48 h
KM12 = system: KM12
IGROV-1 = system: IGROV-1
OVCAR-4 = system: OVCAR-4
UACC-257 = system: UACC-257
NCI-H460 = system: NCI-H460
CCRF-CEM = system: CCRF-CEM
EKVX = system: EKVX
UO-31 = system: UO-31
DLD-1 = system: DLD-1
ACHN = system: ACHN
A549 = system: A549
SW-620 = system: SW-620
NCI-H226 = system: NCI-H226
M14 = system: M14
SNB-75 = system: SNB-75
SK-OV-3 = system: SK-OV-3
CAKI-1 = system: CAKI-1
MCF7 = system: MCF7
HOP-92 = system: HOP-92
MDA-N = system: MDA-N

Structure (SMILES) | GI50 (KM12) | GI50 (IGROV-1) | GI50 (OVCAR-4) | GI50 (UACC-257) | GI50 (NCI-H460) | GI50 (CCRF-CEM) | GI50 (EKVX) | GI50 (UO-31) | GI50 (DLD-1) | GI50 (ACHN) | GI50 (A549) | GI50 (SW-620) | GI50 (NCI-H226) | GI50 (M14) | GI50 (SNB-75) | GI50 (SK-OV-3) | GI50 (CAKI-1) | GI50 (MCF7) | GI50 (HOP-92) | GI50 (MDA-N)
C#CCSc1nc(N)c2ncn(C3OC(CO)C(O)C3O)c2n1 (stereo unspecified) | > 100 µM (inactive) | > 100 µM (inactive) | > 100 µM (inactive) | > 100 µM (inactive) | > 100 µM (inactive) | > 100 µM (inactive) | > 100 µM (inactive) | > 100 µM (inactive) | > 100 µM (inactive) | > 100 µM (inactive) | > 100 µM (inactive) | > 100 µM (inactive) | – | – | – | – | – | – | – | –
CCOP12(OCC)NC(=O)OC1(C(F)(F)F)c1ccccc1O2 (stereo unspecified) | > 100 µM (inactive) | > 100 µM (inactive) | > 100 µM (inactive) | > 100 µM (inactive) | > 100 µM (inactive) | > 100 µM (inactive) | – | > 100 µM (inactive) | > 100 µM (inactive) | > 100 µM (inactive) | > 100 µM (inactive) | – | > 100 µM (inactive) | > 100 µM (inactive) | 82.8 µM (inactive) | > 100 µM (inactive) | – | – | – | –
CC1=NN(c2ccccc2)C(=O)/C1=C\c1ccc([N+](=O)[O-])cc1 | 26.4 µM (inactive) | 29.6 µM (inactive) | 19.3 µM (inactive) | 28.7 µM (inactive) | 34 µM (inactive) | 20.7 µM (inactive) | 36.6 µM (inactive) | 32.3 µM (inactive) | 36 µM (inactive) | 31.5 µM (inactive) | 35.4 µM (inactive) | 30.3 µM (inactive) | – | 30.8 µM (inactive) | 25.5 µM (inactive) | 24.1 µM (inactive) | 27.3 µM (inactive) | – | – | –
CC1=C(CO)C2=C(C)C3(CC3)[C@@](C)(O)C(=O)C2=C1 [IROFULVEN] | 0.697 µM (active) | 0.149 µM (active) | 0.237 µM (active) | 0.227 µM (active) | 0.0467 µM (active) | 1.82 µM (inactive) | 0.19 µM (active) | 0.19 µM (active) | – | 0.262 µM (active) | 0.113 µM (active) | 0.614 µM (active) | 0.191 µM (active) | 0.258 µM (active) | 0.191 µM (active) | 0.248 µM (active) | 0.265 µM (active) | 0.242 µM (active) | 0.309 µM (active) | 1.04 µM (active)
CC[C@]12C=CCN3CC[C@@]4(c5cc(N=O)c(OC)cc5N(C)[C@H]4[C@@](O)(C(=O)NC(Cc4c[nH]c5ccccc45)C(=O)OC)[C@@H]1O)[C@@H]32 (stereo partly specified) | 12.5 µM (inactive) | 17.7 µM (inactive) | 15.6 µM (inactive) | 15.1 µM (inactive) | 19.1 µM (inactive) | 3.27 µM (inactive) | 20.9 µM (inactive) | 23.1 µM (inactive) | – | 18.9 µM (inactive) | 29.4 µM (inactive) | 6.93 µM (inactive) | 24.5 µM (inactive) | 19 µM (inactive) | 15 µM (inactive) | 20.2 µM (inactive) | 17.9 µM (inactive) | 15.3 µM (inactive) | 12.3 µM (inactive) | 20.3 µM (inactive)
Cc1ccc(C)c(NC(=O)C(=O)C2C(=O)C3=C(CC2(C)C)Nc2ccccc2S3)c1 (stereo unspecified) | > 100 µM (inactive) | 69.7 µM (inactive) | > 100 µM (inactive) | > 100 µM (inactive) | > 100 µM (inactive) | 70.6 µM (inactive) | 73.5 µM (inactive) | 53.8 µM (inactive) | – | > 100 µM (inactive) | > 100 µM (inactive) | > 100 µM (inactive) | 58.1 µM (inactive) | > 100 µM (inactive) | 29.4 µM (inactive) | 60.4 µM (inactive) | > 100 µM (inactive) | > 100 µM (inactive) | 52.1 µM (inactive) | > 100 µM (inactive)
O=C(CSc1nnc(Cc2ccccc2)o1)Nc1ccccc1 | > 100 µM (inactive) | > 100 µM (inactive) | > 100 µM (inactive) | > 100 µM (inactive) | > 100 µM (inactive) | > 100 µM (inactive) | – | > 100 µM (inactive) | > 100 µM (inactive) | > 100 µM (inactive) | > 100 µM (inactive) | – | > 100 µM (inactive) | > 100 µM (inactive) | > 100 µM (inactive) | > 100 µM (inactive) | – | – | – | –
CC(=O)Oc1ccc2c(c1)[nH]c1c3ccc(OC(C)=O)cc3oc(=O)c21 | 29.1 µM (inactive) | 39 µM (inactive) | 42.4 µM (inactive) | 43.2 µM (inactive) | 22.6 µM (inactive) | 19.3 µM (inactive) | 34.7 µM (inactive) | 27.8 µM (inactive) | – | 27 µM (inactive) | 56.9 µM (inactive) | 25 µM (inactive) | 21.8 µM (inactive) | 30.5 µM (inactive) | 51.6 µM (inactive) | 26 µM (inactive) | 52.4 µM (inactive) | 24.9 µM (inactive) | 61.1 µM (inactive) | 33.3 µM (inactive)
C=C1CCC2(C(C)=O)COC1(C)O2 (stereo unspecified) | > 100 µM (inactive) | > 100 µM (inactive) | – | > 100 µM (inactive) | > 100 µM (inactive) | > 100 µM (inactive) | > 100 µM (inactive) | > 100 µM (inactive) | > 100 µM (inactive) | > 100 µM (inactive) | > 100 µM (inactive) | > 100 µM (inactive) | > 100 µM (inactive) | > 100 µM (inactive) | > 100 µM (inactive) | > 100 µM (inactive) | – | – | – | –
COc1ccc(/C=N/NC(=O)c2ccccc2Nc2ccccc2C(=O)N/N=C/c2ccc(OC)c(OC)c2)cc1OC | > 100 µM (inactive) | > 100 µM (inactive) | > 100 µM (inactive) | > 100 µM (inactive) | > 100 µM (inactive) | > 100 µM (inactive) | > 100 µM (inactive) | > 100 µM (inactive) | – | > 100 µM (inactive) | > 100 µM (inactive) | > 100 µM (inactive) | > 100 µM (inactive) | 36.5 µM (inactive) | > 100 µM (inactive) | > 100 µM (inactive) | > 100 µM (inactive) | > 100 µM (inactive) | 71.9 µM (inactive) | > 100 µM (inactive)
COC(=O)CC[C@@H](C)[C@H]1CC[C@H]2[C@@H]3CC[C@@H]4C[C@H](O)CC[C@]4(C)[C@H]3CC[C@]12C | 17.5 µM (inactive) | 17.2 µM (inactive) | 19 µM (inactive) | 14.8 µM (inactive) | 19.3 µM (inactive) | 18.2 µM (inactive) | 19.2 µM (inactive) | 19 µM (inactive) | – | 20.7 µM (inactive) | 18.5 µM (inactive) | 29.6 µM (inactive) | 20.3 µM (inactive) | 18.5 µM (inactive) | 19.1 µM (inactive) | 20.8 µM (inactive) | 17.9 µM (inactive) | 18.3 µM (inactive) | 13.8 µM (inactive) | 19.1 µM (inactive)
O=C1N=C2SC=C(NC(=S)Nc3ccccc3)N2NC12c1ccccc1-c1ccccc12 | > 10 µM (inactive) | > 10 µM (inactive) | > 10 µM (inactive) | > 10 µM (inactive) | > 10 µM (inactive) | > 10 µM (inactive) | 9.25 µM (inactive) | 8.67 µM (inactive) | – | 9.4 µM (inactive) | > 10 µM (inactive) | > 10 µM (inactive) | > 10 µM (inactive) | > 10 µM (inactive) | > 10 µM (inactive) | > 10 µM (inactive) | > 10 µM (inactive) | > 10 µM (inactive) | > 10 µM (inactive) | > 10 µM (inactive)
O=C1C(c2ccc(Cl)cc2)=[N+]([O-])c2ccccc21 | 15.2 µM (inactive) | 18.1 µM (inactive) | – | 16 µM (inactive) | 18.8 µM (inactive) | 4.36 µM (inactive) | 15.3 µM (inactive) | > 100 µM (inactive) | 13.8 µM (inactive) | 15.2 µM (inactive) | 17.5 µM (inactive) | 39.7 µM (inactive) | 19.1 µM (inactive) | 14.2 µM (inactive) | 21.4 µM (inactive) | > 100 µM (inactive) | – | – | – | –
C[N+](C)(C)C(C1=CCCC1=O)c1ccccc1 (stereo unspecified) | 19 µM (inactive) | 30.3 µM (inactive) | 80.7 µM (inactive) | 22.8 µM (inactive) | 28.4 µM (inactive) | 12.5 µM (inactive) | > 100 µM (inactive) | > 100 µM (inactive) | – | 25.4 µM (inactive) | > 100 µM (inactive) | 21.5 µM (inactive) | 36.6 µM (inactive) | > 100 µM (inactive) | 52.8 µM (inactive) | > 100 µM (inactive) | 24.5 µM (inactive) | 21.8 µM (inactive) | 26.4 µM (inactive) | 33.4 µM (inactive)
Fc1ccc(/N=C/C=C/Nc2ccc(F)cc2)cc1 | 3.31 µM (inactive) | 12.8 µM (inactive) | 15.3 µM (inactive) | 13.5 µM (inactive) | 6.19 µM (inactive) | 4.67 µM (inactive) | 12.9 µM (inactive) | 6.73 µM (inactive) | – | 0.11 µM (active) | 8.67 µM (inactive) | 3.32 µM (inactive) | 19.5 µM (inactive) | 0.137 µM (active) | 15 µM (inactive) | 15.3 µM (inactive) | 12.7 µM (inactive) | 11.7 µM (inactive) | 17.6 µM (inactive) | 2.75 µM (inactive)
COc1ccc(OC)c2cc(Cc3ccc(N(C)C)cc3)c(=O)c(Cc3ccc(N(C)C)cc3)cc12 | > 100 µM (inactive) | 45.7 µM (inactive) | > 100 µM (inactive) | > 100 µM (inactive) | 55.6 µM (inactive) | > 100 µM (inactive) | > 100 µM (inactive) | > 100 µM (inactive) | – | > 100 µM (inactive) | 57 µM (inactive) | > 100 µM (inactive) | 47.3 µM (inactive) | > 100 µM (inactive) | 40.4 µM (inactive) | > 100 µM (inactive) | 61 µM (inactive) | > 100 µM (inactive) | > 100 µM (inactive) | > 100 µM (inactive)
